The numbers were not newly measured in publication PMC2817966 (Journal of chemical information and modeling, 2009), which cites them from elsewhere.

On to `CC(Sc1nc(N)cc(Cl)n1)c1cc2ccoc2cn1` (single isomer, unassigned; (-)) [PNU142721, (-)-6-Chloro-2-[(1-furo[2,3-c]pyridin-5-ylethyl)thio]-4-pyrimidinamine], for which, in the series with Tyr181Cys variant, the “activity towards a Y181C variant” value was 1 µM. Further, the “potency towards WT HIV-1” value in the series with WT HIV-1 is recorded as 1 nM.
Consider `Cc1cc(C)cc(Oc2c(CSCc3ccco3)c(C)[nH]c(=O)c2I)c1` [Compound R221239], for which the IC50 in the series on Tyr181Cys variant (read-out: IC50 against Tyr181Cys variant) is 5 nM; in the series with WT HIV-1 (read-out: IC50 against WT HIV), 2 nM.
